Experimental findings from patent US9302999B2, “Substituted triazoles as herbicides” (E. I. DU PONT DE NEMOURS AND COMPANY, priority 2012, dated 2016) are described below.

The structures appear in SMILES notation. Read-outs that look alike come from different tables or passages of the source.

Common to all, as to assay type: in vivo
Test [1] deals with crabgrass, large (large crabgrass, Digitaria sanguinalis). As to the kind of experiment: Test A pre-/postemergence: crabgrass, large. Particulars: for pest or weed control at 125 g/ha / pest or weed control at 500 g/ha: Digitaria sanguinalis, 240 h. The gist of the method:
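Each species received preemergence soil-directed spraying and, at the same time, postemergence treatment of seedlings 2–10 cm tall. Formulation: non-phytotoxic solvent mixture including surfactant. Response assessed visually about ten days on, relative to untreated controls, 0–100 scale.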

Test [2] deals with barley, spring (spring barley, Hordeum vulgare). Put plainly: Test D pre-/postemergence: barley, spring. The text has this: (§1) Seeds of plant species selected from bluegrass (annual bluegrass, Poa annua), blackgrass (Alopecurus myosuroides), canarygrass (Phalaris minor), chickweed (common chickweed, Stellaria media), galium (catchweed bedstraw, Galium aparine), bromegrass, downy (downy bromegrass, Bromus tectorum), field poppy (Papaver rhoeas), field violet (Viola arvensis), foxtail, green (green foxtail, Setaria viridis), deadnettle (henbit deadnettle, Lamium amplexicaule), ryegrass, Italian (Italian ryegrass, Lolium multiflorum), kochia (Kochia scoparia), lambsquarters (Chenopodium album), oilseed rape (Brassica napus), pigweed (Amaranthus retroflexus), Russian thistle (Salsola iberica), chamomile (scentless chamomile, Matricaria inodora), speedwell (bird's-eye speedwell, Veronica persica), barley, spring (spring barley, Hordeum vulgare), wheat, spring (spring wheat, Triticum aestivum), buckwheat, wild (wild buckwheat, Polygonum convolvulus), mustard, wild (wild mustard, Sinapis arvensis), oat, wild (wild oat, Avena fatua), radish, wild (wild radish, Raphanus raphanistrum), windgrass (Apera spica-venti), barley, winter (winter barley, Hordeum vulgare), and wheat, winter (winter wheat, Triticum aestivum) were planted into a silt loam soil and treated preemergence with test chemicals formulated in a non-phytotoxic solvent mixture which included a surfactant. At the same time, these same crop and weed species were planted in pots containing the planting medium comprising spaghnum peat moss, vermiculite, wetting agent and starter nutrients and treated with postemergence applications of the test chemicals formulated in the same manner. Plants ranged in height from 2 to 18 cm (1- to 4-leaf stage).
(§2) Treated plants and controls were maintained in a controlled growth environment for 14 to 21 days after which time all species were compared to controls and visually evaluated. Plant response ratings, summarized in Table D, are based on a scale of 0 to 100 where 0 is no effect and 100 is complete control. A dash (-) response means no test result.

In a further test the test system is soybean (Glycine max). Put plainly: Test C pre-/postemergence: soybean. The source says:
Seeds of plant species selected from blackgrass (Alopecurus myosuroides), bromegrass, downy (downy bromegrass, Bromus tectorum), foxtail, green (green foxtail, Setaria viridis), ryegrass, Italian (Italian ryegrass, Lolium multiflorum), winter wheat (Triticum aestivum), wild oat (Avena fatua), galium (catchweed bedstraw, Galium aparine), bermudagrass (Cynodon dactylon), surinam grass (Brachiaria decumbens), cocklebur (common cocklebur, Xanthium strumarium), corn (Zea mays), large crabgrass (Digitaria sanguinalis), woolly cupgrass (Eriochloa villosa), foxtail, giant (giant foxtail, Setaria faberii), goosegrass (Eleusine indica), johnsongrass (Sorghum halepense), kochia (Kochia scoparia), lambsquarters (Chenopodium album), morningglory (Ipomoea coccinea), nightshade (eastern black nightshade, Solanum ptycanthum), nutsedge, yellow (yellow nutsedge, Cyperus esculentus), pigweed (Amaranthus retroflexus), ragweed (common ragweed, Ambrosia elation), soybean (Glycine max), common (oilseed) sunflower (Helianthus annuus), Russian thistle (Salsola kali) and velvetleaf (Abutilon theophrasti) were planted into a blend of loam soil and sand and treated preemergence with test chemicals formulated in a non-phytotoxic solvent mixture which included a surfactant.
At the same time, plants selected from these crop and weed species and also barley (winter barley, Hordeum vulgare), canarygrass (Phalaris minor), chickweed (common chickweed, Stellaria media) windgrass (Apera spica-venti) and deadnettle (henbit deadnettle, Lamium amplexicaule) were planted in pots containing Redi-Earth® planting medium (Scotts Company, 14111 Scottslawn Road, Marysville, Ohio 43041) comprising spaghnum peat moss, vermiculite, wetting agent and starter nutrients and treated with postemergence applications of test chemicals formulated in the same manner. Plants ranged in height from 2 to 18 cm (1- to 4-leaf stage) for postemergence treatments.
Treated plants and controls were maintained in a greenhouse for 13 to 15 days, after which time all species were compared to controls and visually evaluated. Plant response ratings, summarized in Table C, are based on a scale of 0 to 100 where 0 is no effect and 100 is complete control. A dash (-) response means no test result.

The subject of test [3] is barley, winter (winter barley, Hordeum vulgare). Put plainly: Test D pre-/postemergence: barley, winter.
From the text: as §1, §2

In test [4] the test system is ducksalad (Heteranthera limosa). Put plainly: Test B flooded paddy: ducksalad. Conditions: Flood, applied to paddy water at 2-leaf stage, visually evaluated after 13 to 15 days. The gist of the method:
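Visual ratings (0 = no effect, 100 = complete control) versus untreated controls were taken 13–15 days after treatment of greenhouse plants. Treatment was added to paddy water held at 3 cm depth on 2-leaf-stage seedlings.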

Where [5] appears, read: post-emergence, Postemergence, 125 g ai/ha, 0 to 100 scale, 0 is no effect, 100 is complete control, read-out: Crabgrass, Large plant response rating.
The mark [6] stands for this setting: post-emergence, Postemergence, 500 g ai/ha, visual rating on 0 to 100 scale (0 no effect, 100 complete control), approximately ten days, read-out: Crabgrass, Large plant response rating.
[7] abbreviates: pre-emergence, Preemergence, 125 g ai/ha, 0 to 100 scale (0 no effect, 100 complete control), read-out: Plant response rating, Crabgrass, Large.
The mark [8] stands for this setting: pre-emergence, Preemergence, 500 g ai/ha, 0 to 100 scale, 0 is no effect, 100 is complete control, read-out: Plant response rating, Crabgrass, Large.
The mark [9] stands for this setting: Postemergence, 31 g ai/ha, scale 0 to 100 (0 no effect, 100 complete control).
Where [10] appears, read: Postemergence, 62 g ai/ha, scale 0 to 100 (0 no effect, 100 complete control).
[11] abbreviates: Postemergence, 125 g ai/ha, scale 0 to 100, 0 no effect, 100 complete control.
Setting [12] is: Postemergence, 250 g ai/ha, scale 0 to 100 (0 no effect, 100 complete control).
Setting [13] is: Postemergence, 16 g ai/ha, scale 0 to 100.
[14] abbreviates: Preemergence, 16 g ai/ha, scale 0 to 100 (0 no effect, 100 complete control).
Where [15] appears, read: Preemergence, 31 g ai/ha, scale 0 to 100 (0 no effect, 100 complete control).
Setting [16] is: Preemergence, 62 g ai/ha, scale 0 to 100.
The mark [17] stands for this setting: Preemergence, 125 g ai/ha, scale 0 to 100.
Where [18] appears, read: Preemergence, 250 g ai/ha, scale 0 to 100.
[19] abbreviates: Postemergence, 250 g ai/ha, scale 0 to 100.
Where [20] appears, read: Postemergence, 125 g ai/ha, 0 to 100 scale, 0 is no effect, 100 is complete control.
[21] abbreviates: Postemergence, 500 g ai/ha, visual rating on 0 to 100 scale (0 no effect, 100 complete control), approximately ten days.
Setting [22] is: Preemergence, 125 g ai/ha, 0 to 100 scale where 0 is no effect and 100 is complete control.
The mark [23] stands for this setting: Preemergence, 500 g ai/ha, 0 to 100 scale (0 no effect, 100 complete control).
The mark [24] stands for this setting: Preemergence, 31 g ai/ha, scale of 0 to 100, 0 is no effect, 100 is complete control.
[25] abbreviates: Preemergence, 62 g ai/ha, scale of 0 to 100, 0 is no effect, 100 is complete control.
The mark [26] stands for this setting: Preemergence, 250 g ai/ha, scale 0 to 100, 0 no effect, 100 complete control.

As to `Cc1nn(-c2ccc(F)cc2)nc1Cc1ccnc(C(F)(F)F)c1` [Compound 16, 4-[[2-(4-fluorophenyl)-5-methyl-2H-1,2,3-triazol-4-yl]methyl]-2-(trifluoromethyl)pyridine], the pest or weed control at 125 g/ha in test [1] (setting [5]) and in test [1] (setting [7]) was 90% each time. Further, the pest or weed control at 500 g/ha was 90% in test [1] (setting [6]) and 100% in test [1] (setting [8]). Further, the “Plant response rating: Barley, Spring” value in test [2] (setting [9]) turned out to be 15; in test [2] (setting [10]), 15; in test [2] (setting [11]), 20; in test [2] (setting [12]), 35. Moreover, the “Plant response rating, Barley, Spring” value in test [2] (setting [13]) is 5; in test [2] (setting [14]), 0; in test [2] (setting [15]), 0; in test [2] (setting [16]) it was 5; in test [2] (setting [17]) it was 5; in test [2] (setting [18]) it was 5. The “Plant response rating, Soybean” value in the test on soybean (Glycine max) (setting [9]) worked out at 20; in the test with soybean (Glycine max) (setting [10]) it was 25; with soybean (Glycine max) (setting [11]) it was 35; in the test with soybean (Glycine max) (setting [19]) it was 35. In addition, the “Plant response rating: Barley, Winter” value is reported as 10 in test [3] (setting [9]), 10 in test [3] (setting [10]), 25 in test [3] (setting [11]) and 40 in test [3] (setting [12]). In addition, the “Plant response rating, Barley, Winter” value is 5 in test [3] (setting [13]); 0 in test [3] (setting [14]); 0 in test [3] (setting [15]); 5 in test [3] (setting [16]); 10 in test [3] (setting [17]); 25 in test [3] (setting [18]).

Consider `COc1nn(-c2ccc(C(F)(F)F)cc2)nc1Cn1ccc(C(F)(F)F)n1` [Compound 17, 4-methoxy-2-[4-(trifluoromethyl)phenyl]-5-[[3-(trifluoromethyl)-1H-pyrazol-1-yl]methyl]-2H-1,2,3-triazole], for which the results for the pest or weed control at 125 g/ha in test [1] (setting [5]) and in test [1] (setting [7]) were 90% and 100%, respectively. Also, the pest or weed control at 500 g/ha came out at 90% in test [1] (setting [6]) and 100% in test [1] (setting [8]).

For `Cc1nn(-c2ccc(C(F)(F)F)cc2)nc1Cc1cccc(C(F)(F)F)c1` [Compound 124], the “Crabgrass, Large plant response rating” value in test [1] (Postemergence, 1000 g ai/ha, visual rating on 0 to 100 scale (0 no effect, 100 complete control), approximately ten days) came to 90; in test [1] (Preemergence, 1000 g ai/ha, 0 to 100 scale, 0 is no effect, 100 is complete control) it was 100. The “Plant response rating, Soybean” value in the test on soybean (Glycine max) (Postemergence, 16 g ai/ha, scale 0 to 100, 0 no effect, 100 complete control) is recorded as 45; in the test on soybean (Glycine max) (setting [9]) it was 55; with soybean (Glycine max) (setting [10]), 55; in the test with soybean (Glycine max) (setting [11]) it was 60.

`CCc1nn(-c2ccc(C(F)(F)F)cc2)nc1Oc1cccc(OC(F)(F)F)c1` [Compound 125, 4-ethyl-5-[3-(trifluoromethoxy)phenoxy]-2-[4-(trifluoromethyl)phenyl]-2H-1,2,3-triazole]: the pest or weed control at 125 g/ha in test [1] (setting [5]) is 60%; in test [1] (pre-emergence, Preemergence, 125 g ai/ha, 0 to 100 scale where 0 is no effect and 100 is complete control, read-out: Plant response rating, Crabgrass, Large), 80%. The pest or weed control at 500 g/ha was determined as 90% in test [1] (setting [6]) and 90% in test [1] (pre-emergence, Preemergence, 500 g ai/ha, 0 to 100 scale (0 no effect, 100 complete control), read-out: Plant response rating, Crabgrass, Large).

With `CCCc1nn(-c2ccc(F)cc2)nc1Cc1ccnc(C(F)(F)F)c1` [Compound 153], the “Plant response rating, Crabgrass, Large” value in test [1] (setting [20]), in test [1] (setting [22]) and in test [1] (setting [23]) was 100 each time. Besides, the “Crabgrass, Large plant response rating” value in test [1] (setting [21]) worked out at 100. Also, the “Plant response rating, Soybean” value with soybean (Glycine max) (setting [9]) worked out at 55; in the test with soybean (Glycine max) (setting [10]), 70; in the test on soybean (Glycine max) (setting [11]) it was 70; with soybean (Glycine max) (setting [19]), 85; in the test with soybean (Glycine max) (setting [24]), 20; with soybean (Glycine max) (setting [25]), 20. Further, the “Plant response rating, Soybean” value in the test with soybean (Glycine max) (Preemergence, 125 g ai/ha, scale 0 to 100, 0 no effect, 100 complete control) came out at 35; in the test with soybean (Glycine max) (setting [26]) it was 35. Further, the “Plant response rating, Ducksalad (0 to 100 scale, 0 is no effect, 100 is complete control)” value in test [4] (250 g ai/ha) amounted to 90.

Regarding `Cc1nn(-c2ccc(C(F)(F)F)c(F)c2)nc1Cc1ccnc(C(F)(F)F)c1` [Compound 162], the “Plant response rating, Crabgrass, Large” value is on record as 90 in test [1] (setting [20]), 100 in test [1] (setting [22]) and 100 in test [1] (setting [23]). Further, in test [1] (setting [21]), the “Crabgrass, Large plant response rating” value is 90. The “Plant response rating, Soybean” value with soybean (Glycine max) (setting [9]) came to 70; in the test on soybean (Glycine max) (setting [10]), 70; in the test with soybean (Glycine max) (setting [11]), 75; with soybean (Glycine max) (setting [19]), 95; with soybean (Glycine max) (setting [24]) it was 15; in the test with soybean (Glycine max) (setting [25]), 15. For the same compound, the “Plant response rating, Soybean” value with soybean (Glycine max) (setting [26]) stood at 25. In test [4] (125 g ai/ha), the “Plant response rating, Ducksalad (0 to 100 scale, 0 is no effect, 100 is complete control)” value was determined as 0.
